# Publication PMC10447463, “Data-mining unveils structure–property–activity correlation of viral infectivity enhancing self-assembling peptides” (Nature Communications, 2023)
# Experiments:
# [1] = system: HIV-1 infection of TZM-bl cells; experiment: HIV-1 infectivity enhancement assay, β-galactosidase luminescence; format: cell-based; settings: for Log10 Inf. rel. to EF-C: log10 of HIV-1 infection of TZM-bl cells relative to EF-C, Fig S15 source data, asymmetric std dev errors; for Rel-to EFC / n-fold to virus: Fig S8 panels B, D
# [2] = format: physicochemical; settings: STD prep
# [3] = Turbidity, derived count rate of scattered light; format: physicochemical; settings: for Log Count Rate: log of derived count rate; for Count Rate: turbidity
# Procedure, shortened: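 Samples: 1 mg/mL in PBS pH 7.4 (from DMSO), 1 d at RT, then diluted in 1 mM KCl immediately before measurement. Triplicates, two independent runs averaged.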
# [4] = Feb2021, Log10 of infectivity relative to EF-C
# [5] = Feb2021, figures match the 1.3 µM column
# [6] = Feb2021, infectivity relative to virus only
# [7] = Feb2021, n-fold enhancement relative to EF-C
# [8] = Feb2021, n-fold infectivity relative to EF-C
# [9] = infectivity class (low / medium / high) of each library peptide, main list in c1-c6, same classes repeated in sub-lists of sequences containing the hydrophobicity/charge patterns P+,H0,P+,H0,P0,H0,P0, P+,H0,P0,H0,P0,H0,P0, P+,H0,P0,H0
# [10] = infectivity class (low / medium / high) of the peptide in the sequence-pattern analysis, Fig. S22-A4, class limits not given
# [11] = category 1 or 0 from count rate, key not given
# [12] = derived count rate of scattered light
# [13] = derived count rate of scattered light, mean, std deviation in next column
# [14] = Feb2021, infectivity enhancement relative to EF-C
# [15] = Feb2021 run, infectivity n-fold relative to virus alone
# [16] = Feb2021 run, log10 of infectivity relative to EF-C
# [17] = Feb2021 run, n-fold infectivity relative to EF-C
# [18] = infectivity enhancement relative to EF-C
# [19] = infectivity n-fold relative to virus alone
# [20] = Fig S8 panels A, C, asymmetric log errors
# [21] = Fig S8 panels B, D, derived count rate of scattered light
# [22] = category 1 or 0 derived from the count rate, key not given
# [23] = derived count rate of scattered light, mean, std deviation in separate column
# [24] = Feb2021, 1.3 µM value relative to virus only (0 µM)
# [25] = Feb2021, unrounded values of the 1.3 µM column
# [26] = Feb2021, log10 of infectivity relative to EF-C
# [27] = infectivity enhancement relative to EF-C (=1), Feb2021 run
# [28] = infectivity n-fold relative to virus only, Feb2021 run
# [29] = log10 of infectivity relative to EF-C, Feb2021 run
# [30] = derived count rate from zeta measurement, mean
Substance,"Log10 of Rel to EFC (Feb2021) [1, 4]","Absolute Infectivity / RLU /s (Feb2021) [1, 5]","n-fold to virus (Feb2021) [1, 6]","Rel-to EFC (Feb-2021) [1, 7]","Rel-to EFC (Feb-2021) [1, 8]","infectivity [1, 9]","infectivity [1, 10]",Log10 Inf. rel. to EF-C [1],"TEM: 1= fibrils, 0= aggregates (micelle), 0.5 = aggregates and fibrils, -1 = nothing obersved, STD prep [2]","Zeta Count Rate Category ([3]; category 1 / 0, no key given)","Zeta Count Rate Category [3, 11]","Zeta Count Rate / kcps [3, 12]","Zeta Count Rate / kcps [3, 13]","n-fold to virus (Feb2021) [1, 15]","Log10 of Rel to EFC (Feb2021) [1, 16]","Rel-to EFC (Feb-2021) [1, 17]","Rel-to EFC [1, 18]","n-fold to virus (Feb2021) [1, 24]","Absolute Infectivity / RLU /s (Feb2021) [1, 25]","Zeta Count Rate Category ([3]; category 1/0, no key printed)",other results
KIKIKIQI [TG13],-1.014,2073 RLU /s,4.065,0.09675,0.09675,low,low,-1.014,1,1,1,999.1 kcps,999.1 kcps,,,,,,,,
CKFKQFF [CK15],-2.171,260 RLU /s,0.2836,,0.00675,low,,-2.171,0.5,0,,2.567 kcps,2.567 kcps,0.2836,-2.171,0.00675,0.00675,,,,"Rel-to EFC (Feb-2021) [1, 14]: 0.00675; n-fold to virus [1, 19]: 0.2836; Log Count Rate [3, 20]: 0.4099; Log Count Rate ([3]; Fig S8 panels B, D): 0.4099; Count Rate [3, 21]: 2.57; Zeta Count Rate Category [3, 22]: 0; Zeta Count Rate / kcps [3, 23]: 2.567 kcps"
CKFKFQF [BL4],0.09083,,,1.233,1.233,,high,0.09083,1,,1,,5303 kcps,51.79,0.09083,1.233,1.233,51.79,20066.66667 RLU /s,1,"n-fold to virus [1, 19]: 51.79; Log Count Rate [3, 20]: 3.725; Log Count Rate ([3]; Fig S8 panels B, D): 3.725; Count Rate [3, 21]: 5303.37; Zeta Count Rate / kcps [3, 23]: 5303 kcps"
KIKIQIC [TM112 / CN11],-0.2164,9447 RLU /s,25.53,0.6076,0.6076,medium,,-0.2164,1,1,1,980.7 kcps,980.7 kcps,,,,0.6076,,,,"Rel-to EFC (Feb-2021) [1, 14]: 0.6076; Log10 of Rel to EFC (Feb2021) [1, 26]: -0.2164; n-fold to virus [1, 19]: 25.53; Log Count Rate [3, 20]: 2.992; Log Count Rate ([3]; Fig S8 panels B, D): 2.992; Count Rate [3, 21]: 980.67; Zeta Count Rate Category [3, 22]: 1"
CEIEIQINM [TM144],,,,,0.06512,,low,-1.186,1,,,,58.43 kcps,,,,,2.736,3593 RLU /s,0,"Log10 of Rel to EFC (Feb2021) [1, 26]: -1.186; Rel-to EFC (Feb-2021) [1, 27]: 0.06512; n-fold to virus (Feb2021) [1, 28]: 2.736; Log10 of Rel to EFC (Feb2021) [1, 29]: -1.186; Zeta Count Rate / kcps [3, 30]: 58.43 kcps; Zeta Count Rate Category ([3]; key not given): 0"
CSISIQI [TM141],,,,,0.05593,,low,-1.252,1,,,,10241.1 kcps,,,,0.05593,2.35,3087 RLU /s,1,"Log10 of Rel to EFC (Feb2021) [1, 26]: -1.252; n-fold to virus [1, 19]: 2.35; Log Count Rate [3, 20]: 4.01; Log Count Rate ([3]; Fig S8 panels B, D): 4.01; Count Rate [3, 21]: 10241.1"
KIKIQINMW [JGB1 /TM85],0.3339,,,2.157,,high,high,0.3339,1,,1,,239.6 kcps,90.64,0.3339,2.157,,,,,"Zeta Count Rate / kcps [3, 23]: 239.6 kcps"
CEFEFQFNMWQ [TM140],-0.8509,,,,0.141,medium,,-0.8509,1,,,,186.3 kcps,,,,,5.923,2517 RLU /s,1,"Rel-to EFC (Feb-2021) [1, 14]: 0.141; Zeta Count Rate Category [3, 22]: 1"
KFKFKFQF [TG18],-0.09726,18696.66667 RLU /s,33.59,0.7993,0.7993,,high,-0.09726,1,1,1,1036 kcps,1036 kcps,,,,,,,,
KFKQFFNMWQ [JG5],-1.049,1000 RLU /s,3.75,0.08925,0.08925,low,,-1.0494,0,1,1,236.9 kcps,236.9 kcps,,,,,,,,
RGDKIKIQIC [MG7/CN1],-0.07993,,,0.8319,,,high,-0.07993,1,,1,,7509 kcps,34.95,-0.07993,0.8319,,,,,"Zeta Count Rate / kcps [3, 23]: 7509 kcps"
CEIEIQI [AR2/ TM142],,,,,0.02791,low,,-1.554,1,,,,51.97 kcps,,,,,1.173,633.3 RLU /s,0,"Log10 of Rel to EFC (Feb2021) [1, 26]: -1.554; Rel-to EFC (Feb-2021) [1, 27]: 0.02791; n-fold to virus (Feb2021) [1, 28]: 1.173; Log10 of Rel to EFC (Feb2021) [1, 29]: -1.554; Zeta Count Rate / kcps [3, 30]: 51.97 kcps; Zeta Count Rate Category ([3]; key not given): 0"
